Earlier results as cited in patent publication US4689323A, “Covalently bound heparin--antithrombin-III complex” (Miles Laboratories, Inc., priority 1983, dated 1987).

Experiments:
[1] = system: plasma antithrombin-III ("AT-III"); conditions: continuous intravenous infusion, thromboembolic patients
[2] = Scientific Protein Labs., porcine intestines

## heparin sodium
[1]
  decrease in plasma antithrombin-III levels: about 35%
[2]
  anticoagulant activity of the starting heparin: 167.7 USP units/mg
